Measured values published in EP2490029A1, “Vancomycin analysis” (Université Catholique de Louvain, priority 2011, dated 2012).

How the values were obtained:
[1] = tested on: N-α-acetyl-Lys-D-ala-D-ala; assay: Quartz crystal microbalance (QCM) detection of vancomycin on grafted peptide receptor; type: binding; details: water/glucose solution compared with water; 1 µM and 40 µM; flow rate 40 µL/min
Experimental: Quartz crystal microbalance experiments were performed using SRS Stanford Research Systems (QCM 200 5MHz). The surfaces of gold-plated quartz crystal on chips were prepared as follows: gold-plated quartz crystals were initially immersed in a piranha solution (70/30) for 3 minutes to regenerate the surfaces. The resulting crystals were repeatedly and intensively rinsed with water. The crystals were subsequently grafted with mPEG thiols (O-(2-Mercaptoethyl)-O'-methyl-hexa(ethylene glycol) (polypure) 10^-3 M in ethanol. The grafted crystals were subsequently rinsed with ethanol in an ultrasonic bath, and dried with N2. The grafted crystals were subsequently grafted with NHS ester succinimidyl, 2 mM in acetonitrile sprayed on the surfaces and the surfaces were placed in front of a UV lamp during 2 hours. The functionalized surfaces of the crystals were subsequently rinsed with acetonitrile in an ultrasonic bath; dried with N2, and then subsequently grafted with N-α-acetyl-Lys-D-ala-D-ala in pure water and in water with 5% of glucose (vol.).
All QCM experiments used a flow rate of 40 µL/min. The quality of all the grafting has been tested at each step, by contact angle measurements and IR spectra. All of them were satisfactory. Figures 6, 7 and 8 represent QCM data plot showing delta frequency (MHz) change over time of vancomycin detection. […]

Nα(Ac)-L-Lys-D-Ala-D-Ala = assay: FTIR-ATR biosensor binding of vancomycin to immobilized peptide receptor; details: for vancomycin binding: 50 µg/mL; for Kd: single site binding isotherm, R^2 = 0.99, ± standard error
Experimental: On the thus functionalized ATR element a peptide was bound. Peptide binding onto the device was obtained in one channel of measurement at a time by incubation for 3 hours of N-α-acetyl-Lys-D-Ala-D-Ala peptide, or another peptide as provided in Figure 2, at a concentration of 2 mg/mL in phosphate buffered saline (PBS) at room temperature. The measurement channel was then rinsed with milliQ water for 30 min.
The binding of the peptide was monitored by FTIR-ATR spectroscopy by using the BIA-ATR device. Attenuated Total Reflection Fourier Transformed Infrared (ATR-FTIR) Spectra were obtained on a Brüker IFS55 FTIR spectrophotometer (Ettlingen, Germany) equipped with a MCT detector (broad band 12000-420 cm^-1, liquid N2 cooled, 24h hold time) at a resolution of 8 cm^-1 with an aperture of 3.5 mm and acquired in the double-sided, forward-backward mode. Two levels of zero filling of the interferogram prior to Fourier transform allowed encoding the data every 1 cm^-1. The spectrometer was continuously purged with dry air (Whatman 75-62, Haverhill, MA, USA). Triangular-shaped germanium crystals (4.8 x 4.8 x 45 mm^3) were purchased from Biosentech (Belgium) and accommodated on the beam condenser from a Golden Gate Micro-ATR from Specac. A top plate with a groove fitting the crystal was used in replacement of the diamond-bearing plate (WOW Company, Belgium). With this geometry, a single reflection was obtained and more than 10 lanes can be used on a crystal.
Using a biosensor constructed in Example 1, a solution of vancomycin in pure water (obtained from the laboratory MilliQ system) at a concentration of at 50 µg/mL is passed over one channel of the crystal at a flow-rate of 20 µl/min. FTIR-ATR spectra were recorded continuously and the vancomycin binding is monitored by following the appearance of its characteristic signal at 1230 cm^-1. This monitoring of this signal is advantageous as it is isolated in the spectra, i.e. not superimposed to other signals due to ligand and/or receptor. The intensity of the peak at 1230 cm^-1 thus allowed the quantitative measurement of vancomycin binding.
The N-α(Ac)-L-Lys-D-Ala-D-Ala biosensor as described in Example 1 was used. A solution of vancomycin in phosphate buffered saline (50 µg/mL) was used in the binding assay. The quantitative analysis was performed by measuring the surface on the IR spectra comprised between 1253 and 1218 cm^-1. The spectra were recorded every 30 sec during 5 min. […] The results are depicted in Figure 1.
The unexpected effect on the binding affinity of vancomycin versus X-D-Ala-D-Ala receptor immobilized on the ATR optical element, has been further observed by using the following detection media: 3 mM aqueous solution of Na2HPO4, 10 mM aqueous solution of Na2HPO4, 154 mM aqueous solution of NaCl, and a PBS solution made from 3 mM Na2HPO4 and 50 mM NaCl.
The Nα(Ac)-L-Lys-D-Ala-D-Ala biosensor described in Example 1 was used. The assays were performed three times successively using the same channel, and this has been repeated at three different days (n = 9) using another channel for each day. Solutions of vancomycin in 5% glucose at various concentrations (from 0 to 25 µg/mL) were passed over the crystal at a flow rate of 20 µL/min. The vancomycin binding was analyzed by the integration of the peak at 1230 cm^-1 (10 spectra recorded every 30 sec), and normalized by referring to the 25 µg/mL concentration.
The spiked dialyzed serum samples were flown over a measurement channel on which the Nα(Ac)-L-Lys-D-Ala-D-Ala had been attached as described before in Example 1. The absorption band between 1259 and 1213 cm^-1 was quantified for each vancomycin concentration. The area of the band was reported as a function of vancomycin concentration. […] From the data reported in Figure 4 it follows that vancomycin binding can be monitored with precision in a concentration range which is relevant for medical application.

Q: Which results are given for `CN[C@H](CC(C)C)C(=O)N[C@H]1C(=O)N[C@@H](CC(N)=O)C(=O)N[C@H]2C(=O)N[C@H]3C(=O)N[C@H](C(=O)N[C@H](C(=O)O)c4cc(O)cc(O)c4-c4cc3ccc4O)[C@H](O)c3ccc(c(Cl)c3)Oc3cc2cc(c3O[C@@H]2O[C@H](CO)[C@@H](O)[C@H](O)[C@H]2O[C@H]2C[C@](C)(N)[C@H](O)[C@H](C)O2)Oc2ccc(cc2Cl)[C@H]1O` [vancomycin]?
A: delta frequency shift [1]: greater delta frequency was always observed in the presence of glucose; amount of vancomycin detected (Nα(Ac)-L-Lys-D-Ala-D-Ala; 50 µg/mL in phosphate buffered saline, compared to pure water, IR area 1253-1218 cm^-1): very weak; vancomycin binding (Nα(Ac)-L-Lys-D-Ala-D-Ala; effect of phosphate (3 mM or 10 mM Na2HPO4, PBS) in detection medium): totally prevents; vancomycin binding (Nα(Ac)-L-Lys-D-Ala-D-Ala; effect of sodium chloride at physiological concentration (154 mM NaCl)): partially inhibited; Kd (Nα(Ac)-L-Lys-D-Ala-D-Ala; in 5% glucose, band area 1259-1213 cm^-1): 13.7 ± 1.8 µM; Kd (Nα(Ac)-L-Lys-D-Ala-D-Ala; in human serum dialyzed against 5% glucose): 7.3 ± 0.8 µM; vancomycin binding onto the receptor (Nα(Ac)-L-Lys-D-Ala-D-Ala; in pure water): maximal
